Read-outs that look alike come from different tables or passages of the source. Residues, ends and D or L forms follow the SMILES beside them. *: point of attachment. Palmitoyl = CCCCCCCCCCCCCCCC(=O)*
Key:
TRPV6 WT = target: T1, TRPV6 WT (Homo sapiens, UniProt Q9H1D0); test: Fura-2 Ca2+ imaging, TRPV6 WT; format: cell-based; conditions: 20 μM pal-PIP2 peptide; for inhibition at 20 µM: HEK293, read-out: mean percentage of inhibition (Fura-2 signal), HEK293 cells
T1 construct: expressed in transfected cells; host or cells: HEK293 cells, transient transfection
T1 sequence (Q9H1D0 41-765 limits assumed): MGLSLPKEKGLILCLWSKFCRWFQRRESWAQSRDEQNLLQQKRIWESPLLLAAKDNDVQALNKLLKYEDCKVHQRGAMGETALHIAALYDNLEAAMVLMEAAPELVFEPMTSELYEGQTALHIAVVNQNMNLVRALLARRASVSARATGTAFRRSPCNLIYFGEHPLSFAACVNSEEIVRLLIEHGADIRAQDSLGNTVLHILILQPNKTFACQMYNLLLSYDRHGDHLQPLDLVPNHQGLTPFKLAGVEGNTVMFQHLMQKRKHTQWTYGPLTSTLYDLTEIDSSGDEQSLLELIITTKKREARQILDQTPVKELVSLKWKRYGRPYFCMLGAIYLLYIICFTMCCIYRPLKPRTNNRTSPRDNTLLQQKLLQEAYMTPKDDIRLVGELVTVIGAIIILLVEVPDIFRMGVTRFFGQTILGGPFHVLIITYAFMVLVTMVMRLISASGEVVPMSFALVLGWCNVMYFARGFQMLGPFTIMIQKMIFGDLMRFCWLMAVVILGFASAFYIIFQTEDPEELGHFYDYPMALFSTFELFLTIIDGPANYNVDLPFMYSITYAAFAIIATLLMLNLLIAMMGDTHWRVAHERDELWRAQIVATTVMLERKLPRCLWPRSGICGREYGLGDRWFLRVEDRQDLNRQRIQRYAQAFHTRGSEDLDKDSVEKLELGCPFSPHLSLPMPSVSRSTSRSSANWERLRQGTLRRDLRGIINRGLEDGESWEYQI

TRPV6 I575A = test system: TRPV6 I575A; parameters: method as in PMID 33246965; conditions: HEK293 cells; 0.1 μM and 10 μM cis-22a; Figure 5B; ref [47]; cited from earlier work
TRPV6 W583A = test: NFAT screen, TRPV6 W583A; format: cell-based, human; conditions: HEK293 cells; 5 μM cis-22a, 2 h, vs DMSO; analysable cells hardly present
Experimental: N-terminally TagRFP-labeled human TRPV6 (725 aa) was kindly provided by R. Bhardwaj and M. Hediger (University of Bern, Bern, Switzerland). This variant is translated from the first ATG codon and thus deviates from the non-ATG-initiated protein which is expressed in vivo (accession number NM_018646.6) by lacking 40 amino acids of the very N-terminus. For N-terminal labeling with EYFP, TRPV6 was cloned into pEYFP-C1 (Clontech) via EcoRI and SacII restriction sites. […]
After incubation, cover slips were carefully rinsed with phenol red-free DMEM supplemented with the compound and dosage corresponding to the previous incubation, which was then also present during imaging. […] Subcellular NFAT localization of TRPV6 expressing cells was again monitored on an Axiovert 135 inverted microscope (Zeiss, Oberkochen, Germany), as described in more detail before. […] Images were analyzed using Matlab2018a, differentiating between three cell populations based on the ratio of CFP emission intensity originating from the nucleus and the cytosol, similar to Schober et al. (2019).

| SMILES | inhibition at 20 µM (TRPV6 WT; applied after 0.5 μM cis-22a, Figure 6D, not significantly different from reverse order) [%] | inhibition at 20 µM (TRPV6 WT; applied first (before cis-22a), Figure 6C) [%] | decrease in cytosolic Ca2+ level (TRPV6 WT; HEK293 cells, 2 mM Ca2+, Figure 1B, significantly stronger than control peptide (p < 0.05)) | reduction of intracellular Ca2+ level (TRPV6 WT; HEK293 cells, 2 mM Ca2+, Figure 2A, comparison with G488R) | response to cis-22a vs TRPV6 WT (TRPV6 I575A) | change of nuclear NFAT localization (TRPV6 W583A) |
| --- | --- | --- | --- | --- | --- | --- |
| CCCCCCCCCCCCCCCC(=O)N[C@@H](Cc1c[nH]cn1)C(=O)N[C@@H](CCCNC(=N)N)C(=O)N[C@@H](CCC(N)=O)C(=O)N[C@@H](CCCCN)C(=O)N[C@@H](Cc1c[nH]cn1)C(=O)N[C@@H](Cc1ccccc1)C(=O)N[C@@H](CCC(=O)O)C(=O)N[C@@H](CCCCN)C(=O)N[C@@H](CCCNC(=N)N)C(=O)N[C@@H](CCCNC(=N)N)C(N)=O [pal-PIP2 peptide] (Palmitoyl-HRQKHFEKRR-NH2) | 9.18 | 10.8 | approximately 11% | about 13% | – | – |
| Cc1cccc(C2CCC(N3CCN(c4cccnc4)CC3)CC2)c1.O=C(O)C(F)(F)F (stereo not drawn) [cis-22a] | – | – | – | – | significantly reduced response | nuclear NFAT localization was higher for cis-22a-treated cells compared to the DMSO control |

Source: paper PMC10779433, “Bidirectional Allosteric Coupling between PIP2 Binding and the Pore of the Oncochannel TRPV6” (International Journal of Molecular Sciences, 2024)
